Key:
CD4+ T cells [1] = test: Vaccination with peptide (redox motif + epitope) adsorbed on aluminum hydroxide, SC: induction of cytolytic CD4+ T cells; format: in vivo, human
Source text: A vaccination strategy making use of a mixture of two peptides encompassing the minimal binding sequence of class II-restricted epitopes and a thioreductase motif is therefore established.
Administration of a mixture of these two peptides adsorbed on aluminum hydroxide elicits specific CD4+ T cells with cytolytic properties.
Patients in need for EPO injection are vaccinated by administration of peptide [SEQ ID NO:18] using a standard procedure of peptide adsorbed on aluminum hydroxide and administered by SC injection.
Patients affected by Fabry disease are immunized with peptide of SEQ ID NO:21, using a standard procedure of peptide adsorbed on aluminium hydroxide and administered by SC injection.
The mammalian expression vector pCMV with cytomegalovirus promotor is engineered to allow the expression in CHO (Chinese hamster ovary) cells of any protein for replacement therapy, in fusion with the promiscuous CLIP-derived epitope described in example 2 [SEQ ID NO:17]. Patients in need for injection with a protein for replacement therapy are first vaccinated by administration of a peptide comprising a thioreductase motif and the modified CLIP-derived epitope described in example 2 [SEQ ID NO:18].

CD4+ T cells [2] = settings: peptide adsorbed on aluminum hydroxide, SC injection; known from WO200817517; cited from earlier work
cytolytic CD4+ T cells = test: Administration of epitope-tagged therapeutic protein to a previously vaccinated / cell-treated individual: activation of cytolytic CD4+ T cells and immune response to the protein; format: in vivo, human; settings: individual pretreated with the matching redox-motif peptide or with autologous cells activated by it
Source text: Recombinant alpha-galactosidase can be modified as to contain the sequence of a class II-restricted promiscuous T cell epitope added at the amino-terminal end of the molecule.
The promiscuous nature of the CLIP-modified epitope makes it possible to use the same vaccine and the same EPO molecule for any patient in need of such therapy, regardless of its HLA profile.

CPYC-LF-LKSDGRVKYTLN (CPYCLFLKSDGRVKYTLN; CxxC + redox motif apolipoprotein B-100 epitope) [SEQ ID NO:21]
elicitation of specific CD4+ T cells with cytolytic properties (CD4+ T cells [1]): Epitope-specific cytolytic CD4+ T cells are then produced

CPYC-VR-FFMATRLLMQAL (CPYCVRFFMATRLLMQAL; CxxC redox motif + modified clip peptide) [SEQ ID NO:18]
elicitation of epitope-specific cytolytic CD4+ T cells (CD4+ T cells [2]): elicit epitope-specific cytolytic CD4+ T cells

B1: modified alpha-galactosidase: recombinant alpha-galactosidase modified to contain the LFLKSDGRVKYTLN promiscuous epitope (protein)
chain: LFLKSDGRVKYTLNDNGLARTPTMGWLHWERFMCNLDCQEEPDSCISEKLFMEMAELMVSEGWKDAGYEYLCIDDCWMAPQRDSEGRLQADPQRFPHGIRQLANYVHSKGLKLGIYADVGNKTCAGFPGSFGYYDIDAQTFADWGVDLLKFDGCYCDSLENLADGYKHMSLALNRTGRSIVYSCEWPLYMWPFQKPNYTEIRQYCNHWRNFADIDDSWKSIKSILDWTSFNQERIVDVAGPGGWNDPDMLVIGNFGLSWNQQVTQMALWAIMAAPLFMSNDLRHISPQAKALLQDKDVIAINQDPLGKQGYQLRQGDNFEVWERPLSGLAWAVAMINRQEIGGPRSYTIAVASLGKGVACNPACFITQLLPVKRKLGFYEWTSRLRSHINPTGTVLLQLENTMQMSLKDLL
modifications: apolipoprotein B-100 epitope + alpha galactosidase
immune response towards the therapeutic protein (cytolytic CD4+ T cells): does not elicit an immune response to alpha-galactosidase
